For 28 compounds, EC50 results are on record in patent publication US7601746B2 (Shionogi & Co., Ltd., priority 2003, dated 2009).

The target in the first experiment is T1, human TPO receptor (hTPOR) (Homo sapiens, UniProt P40238).
T1 construct: expressed in transfected cells; host or cells: BaF-B03 (murine IL-3 dependent cell line)
T1 sequence (P40238 26-635): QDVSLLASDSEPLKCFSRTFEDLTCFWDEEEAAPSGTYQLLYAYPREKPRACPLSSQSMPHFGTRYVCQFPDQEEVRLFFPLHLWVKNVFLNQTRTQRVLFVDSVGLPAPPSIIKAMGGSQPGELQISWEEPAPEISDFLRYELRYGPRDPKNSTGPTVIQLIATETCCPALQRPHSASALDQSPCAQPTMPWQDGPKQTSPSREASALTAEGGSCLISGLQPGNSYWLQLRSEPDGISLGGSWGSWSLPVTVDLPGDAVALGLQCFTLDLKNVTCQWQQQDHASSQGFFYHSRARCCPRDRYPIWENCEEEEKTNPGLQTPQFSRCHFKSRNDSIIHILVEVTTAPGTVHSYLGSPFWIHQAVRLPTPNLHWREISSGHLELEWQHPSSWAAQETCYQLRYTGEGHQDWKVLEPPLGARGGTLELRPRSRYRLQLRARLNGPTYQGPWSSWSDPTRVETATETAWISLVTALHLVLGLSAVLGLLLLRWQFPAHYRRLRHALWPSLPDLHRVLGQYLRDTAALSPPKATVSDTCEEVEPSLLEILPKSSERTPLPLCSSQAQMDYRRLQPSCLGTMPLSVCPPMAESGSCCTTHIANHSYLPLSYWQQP
Briefly: Thrombopoietic activity: proliferation of TPO dependent BaF/hTPOR cells (WST-1, absorbance at 450 nm). The format is cell-based. Particulars: 20 h + 4 h WST-1, ED50 = half concentration of the concentration showing the maximum thrombopoietic activity, Table 1. The gist of the method: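 Proliferation read-out: WST-1 absorbance at 450 nm after 20 h compound exposure plus 4 h reagent, using IL-3-deprived BaF/hTPOR cells (5×10^4 per well) dependent on human TPO receptor signalling. ED50 defined as half the concentration producing maximal activity.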
Background: Formazan colour is commonly taken as a measure of viable cells.
`CCCCC(OCCC)c1cccc(-c2csc(NC(=O)c3cc(Cl)c(C=C(C)C(=O)O)c(Cl)c3)n2)c1F` (centres unmarked) [Compound B86, 3-(2,6-dichloro-4-{4-[2-fluoro-3-(1-n-propyloxypentyl)phenyl]thiazol-2-ylcarbamoyl}phenyl)-2-methylacrylic acid]: the EC50 was determined as 0.63 nM.
Still for that read-out and setting: the result for `CCCCOC(CCCC)c1cccc(-c2csc(NC(=O)c3cc(Cl)c(C=C(C)C(=O)O)c(Cl)c3)n2)c1F` (centres unmarked) [Compound B87, 3-(4-{4-[3-(1-n-butyloxypentyl)-2-fluorophenyl]thiazol-2-ylcarbamoyl}-2,6-dichlorophenyl)-2-methylacrylic acid] reads 0.62 nM.
Same read-out and setting: the result for `CCC(CC)COCCCc1cccc(-c2csc(NC(=O)c3cc(Cl)c(C=C(C)C(=O)O)c(Cl)c3)n2)c1F` [Compound B88, 3-[2,6-dichloro-4-(4-[3-[3-(2-ethylbutyloxy)propyl]-2-fluorophenyl]thiazol-2-ylcarbamoyl)phenyl]-2-methylacrylic acid] reads 3.11 nM; that for `CC(=Cc1c(Cl)cc(C(=O)Nc2nc(-c3cccc(CCCOCCC4CCCC4)c3F)cs2)cc1Cl)C(=O)O` [Compound B89, 3-[2,6-dichloro-4-(4-[3-[3-(2-cyclopentylethyloxy)propyl]-2-fluorophenyl]thiazol-2-ylcarbamoyl)phenyl]-2-methylacrylic acid], 1.51 nM.
The same measure, in the same setting: the result for `CCCCCOCCCc1cccc(-c2csc(NC(=O)c3cc(Cl)c(C=C(C)C(=O)O)c(Cl)c3)n2)c1F` [Compound B90] reads 1.15 nM.
Take `CCCCCCCCCCC(OC)c1cccc(-c2csc(NC(=O)c3cc(Cl)c(C=C(C)C(=O)O)c(Cl)c3)n2)c1F` (centres unmarked) [Compound B91, 3-(2,6-dichloro-4-{4-[2-fluoro-3-(1-methyloxyundecyl)phenyl]thiazol-2-ylcarbamoyl)phenyl]-2-methylacrylic acid]: the EC50 came to 1.02 nM.
On to `CCCCOCCCc1cccc(-c2csc(NC(=O)c3cc(Cl)c(C=C(C)C(=O)O)c(Cl)c3)n2)c1F` [Compound B93, 3-(4-{4-[3-(3-n-butyloxypropyl)-2-fluorophenyl]thiazol-2-ylcarbamoyl}-2,6-dichlorophenyl]-2-methylacrylic acid], for which the EC50 worked out at 0.91 nM.
On the same count and under the same terms, the result for `CC(=Cc1c(Cl)cc(C(=O)Nc2nc(-c3cccc(CCCOC(C)C)c3F)cs2)cc1Cl)C(=O)O` [Compound B94, 3-(2,6-dichloro-4-{4-[2-fluoro-3-(3-isopropyloxypropyl)phenyl]thiazol-2-ylcarbamoyl)phenyl]-2-methylacrylic acid] reads 0.97 nM; that for `CCCOCCCc1cccc(-c2csc(NC(=O)c3cc(Cl)c(C=C(C)C(=O)O)c(Cl)c3)n2)c1F` [Compound B95, 3-(2,6-dichloro-4-{4-[2-fluoro-3-(3-n-propyloxypropyl)phenyl]thiazol-2-ylcarbamoyl)phenyl]-2-methylacrylic acid], 0.82 nM; that for `CCCCCCOCCCc1cccc(-c2csc(NC(=O)c3cc(Cl)c(C=C(C)C(=O)O)c(Cl)c3)n2)c1F` [Compound B96, 3-(2,6-dichloro-4-{4-[2-fluoro-3-(3-n-hexyloxypropyl)phenyl]thiazol-2-ylcarbamoyl)phenyl]-2-methylacrylic acid], 0.78 nM.
Same read-out and setting: the result for `CCCOC(C)c1cccc(-c2csc(NC(=O)c3cc(Cl)c(C=C(C)C(=O)O)c(Cl)c3)n2)c1F` (centres unmarked) [Compound B97, 3-(2,6-dichloro-4-{4-[2-fluoro-3-(1-n-propyloxyethyl)phenyl]thiazol-2-ylcarbamoyl)phenyl]-2-methylacrylic acid] reads 0.94 nM; that for `CCCCOC(C)c1cccc(-c2csc(NC(=O)c3cc(Cl)c(C=C(C)C(=O)O)c(Cl)c3)n2)c1F` (centres unmarked) [Compound B98, 3-(4-{4-[3-(1-n-butyloxyethyl)-2-fluorophenyl]thiazol-2-ylcarbamoyl)-2,6-dichlorophenyl]-2-methylacrylic acid], 0.73 nM; that for `CCCCCCOC(C)c1cccc(-c2csc(NC(=O)c3cc(Cl)c(C=C(C)C(=O)O)c(Cl)c3)n2)c1F` (centres unmarked) [Compound B99, 3-(2,6-dichloro-4-{4-[2-fluoro-3-(1-n-hexyloxyethyl)phenyl]thiazol-2-ylcarbamoyl)phenyl]-2-methylacrylic acid], 0.59 nM.
The same measure, in the same setting: the result for `CCCCOCCCC(OCCCC)c1cccc(-c2csc(NC(=O)c3cc(Cl)c(C=C(C)C(=O)O)c(Cl)c3)n2)c1F` (centres unmarked) [Compound B100, 3-(4-{4-[3-(1,4-dibutyloxybutyl)-2-fluorophenyl]thiazol-2-ylcarbamoyl)-2,6-dichlorophenyl]-2-methylacrylic acid] reads 0.68 nM; that for `CCCCCCOCCC(OC)c1cccc(-c2csc(NC(=O)c3cc(Cl)c(C=C(C)C(=O)O)c(Cl)c3)n2)c1F` (centres unmarked) [Compound B101, 3-(2,6-dichloro-4-{4-[2-fluoro-3-(3-n-hexyloxy-1-methyloxypropyl)phenyl]thiazol-2-ylcarbamoyl)phenyl]-2-methylacrylic acid], 1.9 nM.
Take `CCCCCC(OC)c1cccc(-c2csc(NC(=O)c3cc(F)c(/C=C(\C)C(=O)O)c(F)c3)n2)c1OC` (centres unmarked) [Compound B347, (E)-3-(2,6-difluoro-4-{4-[2-methyloxy-3-(1-methyloxyhexyl)phenyl]thiazol-2-ylcarbamoyl}phenyl)-2-methylacrylic acid]: the EC50 is 18.7 nM.
Same read-out and setting: the result for `COc1c(-c2csc(NC(=O)c3cc(F)c(/C=C(\C)C(=O)O)c(F)c3)n2)cccc1C(CC(C)(C)C)OC` (centres unmarked) [Compound B349, (E)-3-(2,6-difluoro-4-{4-[2-methyloxy-3-(1-methyloxy-3,3-dimethylbutyl)phenyl]thiazol-2-ylcarbamoyl}phenyl)-2-methylacrylic acid] reads 16.8 nM; that for `CCCCCCCCCC(OC)c1cccc(-c2csc(NC(=O)c3cc(F)c(/C=C(\C)C(=O)O)c(F)c3)n2)c1OC` (centres unmarked) [Compound B354, (E)-3-(2,6-difluoro-4-{4-[2-methyloxy-3-(1-methyloxydecyl)phenyl]thiazol-2-ylcarbamoyl}phenyl)-2-methylacrylic acid], 3.2 nM; that for `CCCCCCCCCCC(OC)c1cccc(-c2csc(NC(=O)c3cc(F)c(/C=C(\C)C(=O)O)c(F)c3)n2)c1OC` (centres unmarked) [Compound B355, (E)-3-(2,6-difluoro-4-{4-[2-methyloxy-3-(1-methyloxyundecyl)phenyl]thiazol-2-ylcarbamoyl}phenyl)-2-methylacrylic acid], 3.3 nM.
On the same count and under the same terms, the result for `CCCOCCCc1cccc(-c2csc(NC(=O)c3cc(F)c(/C=C(\C)C(=O)O)c(F)c3)n2)c1OC` [Compound B380, (E)-3-(2,6-difluoro-4-{4-[2-methyloxy-3-(3-propyloxypropyl)phenyl]thiazol-2-ylcarbamoyl}phenyl)-2-methylacrylic acid] reads 23.2 nM; that for `COc1c(COCCCC2CCCCC2)cccc1-c1csc(NC(=O)c2cc(F)c(/C=C(\C)C(=O)O)c(F)c2)n1` [Compound B397], 2.52 nM.
On to `CCCCOC(CC)c1cccc(-c2csc(NC(=O)c3cc(F)c(/C=C(\C)C(=O)O)c(F)c3)n2)c1OC` (centres unmarked) [Compound B418, (E)-3-(4-{4-[3-(1-butyloxypropyl)-2-methyloxyphenyl]thiazol-2-ylcarbamoyl}-2,6-difluorophenyl)-2-methylacrylic acid], for which the EC50 is 6.3 nM.
Turning to `CCCCOCCCc1cccc(-c2csc(NC(=O)c3cc(F)c(/C=C(\C)C(=O)O)c(F)c3)n2)c1OC` [Compound B419, (E)-3-(4-{4-[3-(3-butyloxypropyl)-2-methyloxyphenyl]thiazol-2-ylcarbamoyl}-2,6-difluorophenyl)-2-methylacrylic acid], the EC50 turned out to be 14.6 nM.
The same measure, in the same setting: the result for `CCCCOC(c1cccc(-c2csc(NC(=O)c3cc(F)c(/C=C(\C)C(=O)O)c(F)c3)n2)c1OC)C(C)(C)C` (centres unmarked) [Compound B425, (E)-3-(4-{4-[3-(1-butyloxy-2,2-dimethylpropyl)-2-methyloxyphenyl]thiazol-2-ylcarbamoyl}-2,6-difluorophenyl)-2-methylacrylic acid] reads 2.01 nM; that for `CCCCCOC(c1cccc(-c2csc(NC(=O)c3cc(F)c(/C=C(\C)C(=O)O)c(F)c3)n2)c1OC)C1CCCCC1` (centres unmarked) [Compound B484], 1.29 nM; that for `COc1c(CCCOCC(C)(C)C)cccc1-c1csc(NC(=O)c2cc(F)c(/C=C(\C)C(=O)O)c(F)c2)n1` [Compound B488], 15.9 nM.
With `CCCCCCOCCCc1cccc(-c2csc(NC(=O)c3cc(F)c(/C=C(\C)C(=O)O)c(F)c3)n2)c1OC` [Compound B505, (E)-3-(2,6-difluoro-4-{4-[3-(3-hexyloxypropyl)-2-methyloxyphenyl]thiazol-2-ylcarbamoyl}phenyl)-2-methylacrylic acid], the EC50 stood at 12 nM.
Same read-out and setting: the result for `CCCCCCOC(c1cccc(-c2csc(NC(=O)c3cc(F)c(/C=C(\C)C(=O)O)c(F)c3)n2)c1OC)C1CCCCC1` (centres unmarked) [Compound B519] reads 1.03 nM.

The same experiment, now with this note: 20 h + 4 h WST-1, ED50 = half concentration of the concentration showing the maximum thrombopoietic activity, Table 2.
Consider `CCCOCCCc1cccc(-c2csc(NC(=O)c3cc(F)c(/C=C(\C)C(=O)O)c(F)c3)n2)c1OC` [Compound B380, (E)-3-(2,6-difluoro-4-{4-[2-methyloxy-3-(3-propyloxypropyl)phenyl]thiazol-2-ylcarbamoyl}phenyl)-2-methylacrylic acid], for which the EC50 worked out at 23.2 nM.

For orientation: EC50 means the concentration that produces a half-maximal response.
